Measured values: patent publication US12239643B2, “Therapeutic agent for inflammatory diseases, autoimmune diseases, fibrotic diseases, and cancer diseases” (MEIJI SEIKA PHARMA CO., LTD., priority 2018, dated 2025)

How the values were obtained:
IL-4 = experiment: Cytokine suppression using whole human blood: IL-4 (CytoStim and CD28 antibody stimulus); format: cell-based; settings: read-out: IL-4 Inhibitory Activity, Human Whole Blood (Test Example 3)
Description: The test compound dissolved in dimethyl sulfoxide was added to a 96-well plate, and RPMI-1640 medium and human peripheral blood containing sodium heparin were added, followed by culture at 37° C. under 5% CO2 for 1 hour. A medium containing only dimethyl sulfoxide instead of the test compound was added to the control well. […]
After collecting the culture supernatant after culturing, the amount of each cytokine was measured by the sandwich ELISA method. […]
The measurement results obtained by measuring the TNFα inhibitory activity and IL-5 inhibitory activity (50% inhibitory concentration) of the test compounds by the above method were evaluated in accordance with the following evaluated basis; A: less than 100 nM, B: 100 nM or more and less than 500 nM, and C: 500 nM or more. In addition, the measurement results obtained by measuring the IL-17A inhibitory activity and IL-4 inhibitory activity (50% inhibitory concentration) of the test compounds were evaluated in accordance with the following evaluated basis; A: less than 500 nM, B: 500 nM or more and less than 5000 nM, and C: 5000 nM or more.

IL-13 = experiment: Cytokine suppression using human T cells: IL-13; format: cell-based; settings: T-cell; human CD3-positive T cells, CD3 and CD28 antibody, about 48 hours; read-out: IL-13 Inhibitory Activity, Human T-Cell (Test Example 5)
Description: First, CD3-positive T cells were separated from whole blood by a magnetic bead method using an EasySep cell separation kit. Separated T cells suspended in RPMI-1640 medium were seeded on a 96-well plate previously coated with CD3 antibody (final concentration 3 μg/mL). Further, CD28 antibody (final concentration 5 ng/mL) was added as an IL-5 production stimulus and an IL-13 production stimulus. A test compound dissolved in dimethyl sulfoxide was added to each well, followed by culture at 37° C. under 5% CO2. The culture was carried out for about 18 hours for the evaluation of the amount of TNFα, and for about 48 hours for the evaluation of the amounts of IL-17A, IL-5, and IL-13. […]
The measurement results obtained by measuring the TNFα inhibitory activity (50% inhibitory concentration) of the test compounds by the above method were evaluated in accordance with the following evaluated basis; A: less than 10 nM, B: 10 nM or more and less than 100 nM, and C: 100 nM or more. In addition, the measurement results obtained by measuring the IL-17A inhibitory activity, IL-5 inhibitory activity, and IL-13 inhibitory activity (50% inhibitory concentration) of the test compounds were evaluated in accordance with the following evaluated basis; A: less than 500 nM, B: 500 nM or more and less than 5000 nM, and C: 5000 nM or more.

[1] = system: type II collagen-induced arthritis, DBA-1 JNCrlj mice; experiment: Mouse CIA (arthritis) model; format: in vivo; settings: oral, day 31 after the initial sensitization of type II collagen
Description: Evaluation was carried out using male DBA-1 JNCrlj mice (6 to 8 weeks of age). First, 150 μg/0.1 mL of type II collagen (bovine)/ACF emulsion was intradermally administered to the mouse ridge to cause primary sensitization. Twenty-one days later, 100 μg/0.1 mL of type II collagen (bovine)/AIF emulsion was similarly intradermally administered to the ridge to cause secondary sensitization. Note that, in the blank group, saline was intradermally administered to the ridge at the first sensitization and second sensitization. Next, for 10 days from the day of secondary sensitization, 0.1 to 20 mg/kg of the test compound dissolved or suspended in 0.5% w/v methylcellulose (0.5% MC) was orally administered once or twice a day.
The arthritis score of each limb was judged to be 0 to 4 by visual inspection and palpation (0: no symptoms, 1: one finger is red and swollen, 2: two or more fingers or in step is red and swollen, 3: fingers, in step, and heel are red and swollen, 4: movement of joints throughout the limb is poor), and the total of the limbs was used as the individual score, and the average score of the individual group administered with each test compound was calculated and used as the arthritis score. In addition, the foot volume (mL) of the left and right hind limbs was measured using a foot volume measuring device, and the edema rate was calculated by the following formula. Edema Rate (%)={(Left and Right Added Footpad Volume After Sensitization−Left and Right Added Footpad Volume Before Sensitization)/Left and Right Added Footpad Volume Before Sensitization}×100
The arthritis score of each test compound on day 31 after the initial sensitization of type II collagen was evaluated by the above method in accordance with the following evaluated basis; A: less than 2, B: 2 or more and less than 3, and C: 3 or more. In addition, the edema rate of each test compound on day 31 after the initial sensitization of type II collagen was evaluated in accordance with the following evaluated basis; A: less than 10%, B: 10% or more and less than 20%, and C: 20% or more. As a result of using apremilast as the test compound, the arthritis score and the edema rate were both evaluated as B. On the other hand, as a result of using the compound obtained in Example 248 as the test compound, the arthritis score and the edema rate were both evaluated as A.

With `CC(C)(O)C(F)(F)Oc1ccc(-c2nccs2)c2oc(N3CC4CC(C3)N4)nc12` [Example 248, 1-((2-(3,6-Diazabicyclo[3.1.1]heptan-3-yl)-7-(thiazol-2-yl)benzo[d]oxazol-4-yl)oxy)-1,1-difluoro-2-methylpropan-2-ol] as the compound, how does the IC50 (IL-4) read?
The IC50 was under 500 nM.

And the IC50 (IL-13)?
Its IC50 is under 500 nM.

And the arthritis score [1]?
The arthritis score was “A (A: less than 2)”.

And the edema rate [1]?
Its edema rate is “A (A: less than 10%)”.

Which results are given for `CCOc1cc([C@@H](CS(C)(=O)=O)N2C(=O)c3cccc(NC(C)=O)c3C2=O)ccc1OC` [apremilast, reference compound]?
IC50 (IL-4): ≥ 5000 nM; IC50 (IL-13): 500 to 5000 nM; arthritis score [1]: B (B: 2 or more and less than 3); edema rate [1]: B (B: 10% or more and less than 20%)
